The values that follow come from PMC11085682, “Identification of Novel Peptides in Distillers’ Grains as Antioxidants, α-Glucosidase Inhibitors, and Insulin Sensitizers: In Silico and In Vitro Evaluation” (Nutrients, 2024).

Series [1] deals with α-glucosidase (Saccharomyces cerevisiae, UniProt P53341). Put plainly: α-glucosidase inhibitory effect (pNPG). It is filed as biochemical. The conditions noted are these: synthetic peptides; PBS pH 6.8, 37 °C, 15 min pre-incubation, 30 min with pNPG, absorbance 405 nm; median (25%, 75% quartiles), at least three experiments; read-out: IC50, α-glucosidase inhibition. The protocol:
Distillers’ grains were generously supplied by the Suzhou Bridge Wine & Spirits Co. (Suzhou, China). Peptides YPLPR, AFEPLR, and NDPF (purity ≥ 98%) were composed by All Peptide Biotechnology Co., Ltd. (Hangzhou, China). Dulbecco’s Modified Eagle Medium (DMEM) medium, embracing 10.0% fetal bovine serum (FBS) and 1.0 mol/L phosphate buffer (PBS) was bought from Gibco (Life Technologies, Inc., Carlsbad, CA, USA). Alkaline protease (2.4 U/g), penicillin-streptomycin (100.0 U/mL penicillin-100.0 […] streptomycin), 3-(4,5-dimethylthiazol-2)-2,5-diphenyltetrazolium bromide (MTT) powder, 2′,7′-dichlorofluorescence yellow diacetate (DCFH-DA), and trypsin solution were purchased from Solarbio (Beijing Solarbio Science and Technology Co., Ltd., Beijing, China). The HepG2 cell line was acquired from the Kunming Institute of Animal Science, Chinese Academy of Sciences (Kunming, China). Rosiglitazone, insulin, ABTS, DPPH, α-glucosidase derived from Saccharomyces cerevisiae (type I, protein content of at least 30.0 units per milligram), and p-nitrobenzene α-D-glucopyranoside (pNPG, with a minimum purity of 99.0%) were purchased from Sigma-Aldrich (located in Shanghai, China). The glucose kit was purchased from Nanjing Jiancheng Co. (Nanjinng, China). […]
The inhibitory effect on α-glucosidase activity of the protein hydrolysates from distillers’ grains or three selected peptides was assessed following the methodology outlined by Zhang et al. (2018) with slight modifications, and the concrete method is shown in the Supplementary Materials. […]
The inhibitory effect on α-glucosidase activity of the protein hydrolysates from distillersʹ grains or three selected peptides was assessed following the methodology outlined by Zhang et al. (2018) with slight modifications. […]
The absorbance of the resulting reaction mixture was measured at a wavelength […]
of 405 nm using an enzyme-labeled instrument. […] In this formula, ʺAʺ represents the absorbance value. […]
The antioxidant properties of vinasse hydrolysates or three screening peptides were evaluated by DPPH and ABTS free radical scavenging […]

Series [2] concerns HepG2 cells. Put plainly: MTT cytotoxicity of samples and insulin in HepG2 cells. The source says: (§1) The MTT method was adopted to assess the impact of samples and insulin on cell viability, helping determine the optimal concentrations of insulin and the samples. The experimental protocol for improving insulin resistance followed previous methods. Details are provided in the Supplementary Materials. In this experiment, various groups were established, incorporating the blank control group (K), model group (M), peptide sample groups, and the positive control group (treated with rosiglitazone).
(§2) […] of the main pathogenic mechanisms of type 2 diabetes mellitus, and the liver is an important site for insulin to function. […] As the cellular insulin resistance condition arises, the utilization of glucose by the cells decreases, and the consumption of glucose decreases. Therefore, insulin resistance is usually expressed by the consumption of glucose in studies. Using the MTT method, this study explored the effect of different concentrations of insulin on cellular glucose consumption after 24 h of action with HepG2 cells.

The subject of series [3] is HepG2 cells. Put plainly: H2O2 effect on cell viability (cell damage model). It is filed as cell-based, human. The settings on record: H2O2 1.2 mmol/L; median (25%, 75% quartiles), n = 4. The source says:
Excessive ROS may attack normal cells or biological macromolecules and undergo oxidative stress, causing severe damage to cellular structures, which causes many diabetic complications and chronic diseases. Accordingly, in this study, the scavenging activities of ABTS and DPPH radicals of bioactive peptides were not only investigated by in vitro experiments, but their antioxidant activity was also further investigated at the cellular level. The cell damage rate of the H2O2-induced cell damage model was generally around 50%. […] When the concentration of H2O2 was 1.2 mmol/L, the cell viability rate was 56.38 (50.33, 68.00) %, so the concentration of H2O2 of 1.2 mmol/L established the cell damage model in this study. […] Consistent with 3.6, YPLPR, AFEPLR, and NDPF were used at 1.0 mmol/L for subsequent experiments.

The test system of series [4] is HepG2 cells. Put plainly: Glucose consumption of insulin-resistant HepG2 cells. It is filed as cell-based, human. The settings on record: 20.0 µmol/L positive control, 24 h, after 25.0 µmol/L insulin 24 h; median (25%, 75% quartiles), n = 6; model group M 6.08 (5.80, 6.81) mmol/L.
Text: as §1, §2

Series [5] deals with α-glucosidase. The settings on record: cited from earlier work; for α-glucosidase activity inhibition: peptides from Spanish dry-cured ham. The source says: Since these peptides have small molecular weights, they are more likely to be absorbed intact by the gastrointestinal tract after oral ingestion, thereby exerting systemic or local effects. Consequently, the study of bioactive peptides has progressively emerged as a prominent research area in recent years. Numerous studies have dem ... || α-glucosidase is a membrane-associated enzyme. Inhibition of α-glucosidase activity can reduce carbohydrate hydrolysis, thus reducing sugar absorption and effectively controlling diabetes.. […] In the study on rice wine peptides, the α-glucosidase inhi ... || Due to the fact that α-glucosidase is a more important and directly regulated target in the treatment of diabetes, the potential inhibitory activity of α-glucosidase was used as the main condition of inquiry for further analysis. […] Therefore, this peptide was selected as a positive control to facilitate the analysis of the current study, and its affinity grading after molecular docking with α-glucosidase was −9.1 kcal/mol. Four peptides, YPLPR, AFEPLR, NDPF, and WN ... || (+ 1 further places)

Details of series [6]: method as in doi:10.1016/j.jff.2016.08.021. The conditions noted are these: at different concentrations (5–150 mg/mL); cited from earlier work.
For series [7] the following is noted: previously screened from rice wine peptides; no reference number printed in the sentence; read-out: IC50, ABTS radical scavenging capacity; cited from earlier work.
The conditions of series [8]: previously screened from rice wine peptides; no reference number printed in the sentence; read-out: IC50, DPPH radical scavenging capacity; cited from earlier work.
For series [9], the system named is HepG2 cells. The settings on record: cited from earlier work; for Glucose consumption in HepG2 cells compared to the model group: walnut-derived peptides; for Insulin resistance in HepG2 cells exposed to high glucose: from goat milk casein hydrolysate. From the text:
In this study, the effect of YPLPR, AFEPLR, and NDPF on the glucose consumption of HepG2 cells in an insulin resistance state was investigated. […] The glucose consumption of peptides YPLPR, AFEPLR, and NDPF were 9.56 (9.37, 9.83), 10.56 ...

In series [10] the test system is HepG2 cells. Put plainly: Effect of insulin concentration on glucose consumption of HepG2 cells. The class given is cell-based, human. The conditions noted are these: insulin 25.0 µmol/L, 24 h. From the text: Details are provided in the Supplementary Materials.
The mark [11] stands for this setting: at 1.0 mmol/mL (so in the source).
Setting [12] is: peptides from malt, read-out: IC50, α-glucosidase inhibitory activity.
[13] abbreviates: peptides from rice wine, read-out: IC50, α-glucosidase depressant activity.

Like-named read-outs stand apart in the source and are kept apart here. Where a SMILES comes first, the peptide text is derived from it. Where no end group is shown, it is not given here.

Chain of α-glucosidase (Saccharomyces cerevisiae, UniProt P53341) (P53341 whole entry): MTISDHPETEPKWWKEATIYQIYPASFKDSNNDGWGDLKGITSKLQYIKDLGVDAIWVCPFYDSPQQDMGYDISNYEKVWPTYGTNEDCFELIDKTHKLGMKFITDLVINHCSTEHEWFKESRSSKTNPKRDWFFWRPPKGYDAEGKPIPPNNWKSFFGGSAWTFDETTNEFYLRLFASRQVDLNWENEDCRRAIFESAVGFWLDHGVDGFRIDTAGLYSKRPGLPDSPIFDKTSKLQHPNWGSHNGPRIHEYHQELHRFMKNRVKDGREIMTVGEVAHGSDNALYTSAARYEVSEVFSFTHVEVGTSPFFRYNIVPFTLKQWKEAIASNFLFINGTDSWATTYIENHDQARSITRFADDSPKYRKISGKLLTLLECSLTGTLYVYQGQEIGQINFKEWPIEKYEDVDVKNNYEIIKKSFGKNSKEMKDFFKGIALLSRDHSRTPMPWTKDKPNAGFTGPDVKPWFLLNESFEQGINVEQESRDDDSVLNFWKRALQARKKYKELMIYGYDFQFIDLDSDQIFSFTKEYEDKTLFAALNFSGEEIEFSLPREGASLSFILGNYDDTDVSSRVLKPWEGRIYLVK

For `NC(=O)C[C@H](N)C(=O)N[C@@H](CC(=O)O)C(=O)N1CCC[C@H]1C(=O)N[C@@H](Cc1ccccc1)C(=O)O` [NDPF] (H-NDPF-OH), the IC50 on α-glucosidase [1] was 6.24 mM. The “Cytotoxicity (MTT)” value in the series with HepG2 cells [2] (setting [11]) is reported as “no cytotoxicity”. Regarding `OO` [Peptide H2O2], the Cell viability rate in the series on HepG2 cells [3] was 56.38 (50.33, 68.00) %. In the case of `CN(CCOc1ccc(CC2SC(=O)NC2=O)cc1)c1ccccn1` (centres unmarked) [rosiglitazone], the Glucose consumption in the series on HepG2 cells [4] is given as 9.09 (8.29, 9.23) mmol/L. Consider “AEEEYPDL [peptide from Spanish dry-cured ham]”, for which the α-glucosidase activity inhibition result in the series with α-glucosidase [5] is “effectively inhibited α-glucosidase activity”. With AFEPLR [AFEPLR], the IC50 at α-glucosidase [1] came out at 8.69 mM. Also, the “Cytotoxicity (MTT)” value in the series with HepG2 cells [2] (setting [11]) was “no cytotoxicity”. On to AGGFR [peptide from malt], for which, at α-glucosidase [5] (setting [12]), the IC50 was 8.66 ± 0.33 mM. As for “AVPYPQ [peptide identified in the research of Pepe et al. (2016)]”, the antioxidant activity result in [6] is reported as “showed antioxidant activity”.

Turning to “EAMAPK [peptide identified in the research of Pepe et al. (2016)]”, the antioxidant activity result in series [6] was “showed antioxidant activity”. For the molecule “FTYPR [peptide previously screened from rice wine peptides by molecular simulation]”, the IC50 in series [7] is 2.64 mM; on α-glucosidase [5] (setting [13]), 3.57 mM; in series [8] it was 6.09 mM.

On to LDLQR [peptide from malt], for which the half-maximal inhibitory concentration (IC50) at α-glucosidase [5] (setting [12]) was 8.59 ± 0.25 mM. LDNFR [peptide from malt]: the IC50 on α-glucosidase [5] (setting [12]) was 9.21 ± 0.22 mM. Take “LGVGG [peptide from Spanish dry-cured ham]”: in the series with α-glucosidase [5], the α-glucosidase activity inhibition result is given as “effectively inhibited α-glucosidase activity”. Consider LRYL [walnut-derived peptide], for which the “Glucose consumption in HepG2 cells compared to the model group” value in the series on HepG2 cells [9] was “increased glucose consumption”. LVRL [walnut-derived peptide]: the “Glucose consumption in HepG2 cells compared to the model group” value with HepG2 cells [9] is on record as “increased glucose consumption”.

With “NPWDQVKR [peptide extracted from goat milk casein hydrolysate]”, the “Insulin resistance in HepG2 cells exposed to high glucose” value (from here on “Insulin resistance”) in the series with HepG2 cells [9] is listed as “improvement in insulin resistance”. On to “QEPVLGPVRGPFP [peptide extracted from goat milk casein hydrolysate]”, for which the “Insulin resistance” value in the series with HepG2 cells [9] is listed as “improvement in insulin resistance”. With “QFTPR [peptide from previous studies on rice wine]”, the IC50 on α-glucosidase [5] (setting [13]) is 9.18 mM. On to “SDIPNPIGSE [peptide extracted from goat milk casein hydrolysate]”, for which the “Insulin resistance” value in the series on HepG2 cells [9] was “improvement in insulin resistance”. Take “SSLFR [peptide from previous studies on rice wine]”: the concentration for half-maximal inhibition (IC50) at α-glucosidase [5] (setting [13]) was 7.73 mM. In the case of VLLALVLLR [walnut-derived peptide], in the series with HepG2 cells [9], the “Glucose consumption in HepG2 cells compared to the model group” value was “increased glucose consumption”. Turning to “WLRL [WLRL peptide from soybean protein, positive control]”, the “inhibitory effect toward α-glucosidase” value in the series on α-glucosidase [5] (peptide from soybean protein) was “good inhibitory effect toward α-glucosidase”. Take YPLPR [YPLPR]: the concentration for half-maximal inhibition (IC50) at α-glucosidase [1] came to 5.31 mM. Moreover, the “Cytotoxicity (MTT)” value with HepG2 cells [2] (setting [11]) is “no cytotoxicity”. With “insulin: used to establish the insulin resistance model”, the “Cellular glucose consumption compared with the group without insulin” value in the series on HepG2 cells [10] is reported as “significantly reduced”. For the same molecule, in the series with HepG2 cells [2] (insulin 25.0 µmol/L), the “Cytotoxicity (MTT)” value is given as “not cytotoxic”.

What is called IC50 is the point on the concentration scale where inhibition reaches its midpoint.
